Results on five sequences are retold here after paper PMC5775428, “Towards an experimental classification system for membrane active peptides” (Scientific Reports, 2018).

Like-named read-outs stand apart in the source and are kept apart here.

Assay [1] relates to Bacillus cereus. Particulars: Bacillus cereus. Here is the method: (§1) Antimicrobial activity was tested against three categories of human and plant pathogenic microorganisms: Gram-positive (Bacillus subtilis, Bacillus cereus, Staphylococcus aureus), Gram-negative (Escherichia coli, Pseudomonas aeruginosa, Erwinia carotovora, Pseudomonas syringae pv. tabaci, Xanthomonas campestris pv. citri) and yeasts (Candida albicans, Cryptococcus neoformans), as previously reported. […] The full list of peptide MICs was published in an accompanying paper, and is available in the current publication as supplementary dataset (Supplementary dataset 01).
(§2) The determination of the minimum inhibitory concentration (MIC) of peptides was performed as described in “Encrypted Antimicrobial Peptides from Plant Proteins”[7]. Briefly, MICs were determined following protocols M7-A10 and M27-A3 from Clinical & Laboratory Standards Institute (CLSI) for bacteria and yeasts, respectively. Different concentrations of IAPs (0.5 to 256 μM) were tested against several microorganisms in a final volume of 100 µL. Three biological repetitions, with 2 technical replicates each, were performed for each test, on polystyrene flat-bottom 96 wells microplates. The minimum inhibitory concentration (MIC) was defined as the concentration at which no cells were detected when visualized by optical microscopy. Please refer to the literature[7] for further details of the microbiological assays.

In assay [2] the test system is Bacillus subtilis. The settings on record: Bacillus subtilis. As to the method: as §1, §2
Assay [3] deals with Candida albicans. Particulars: Candida albicans; for Minimum inhibitory concentration, Average: average of triplicates. Here is the method:
as §1, §2

Assay [4] relates to Cryptococcus neoformans. The settings on record: Cryptococcus neoformans. As to the method: as §1, §2
The test system of assay [5] is Erwinia carotovora. The settings on record: Erwinia carotovora. As to the method: as §1, §2
The subject of assay [6] is Escherichia coli. Particulars: Escherichia coli; for Minimum inhibitory concentration, Average: average of triplicates. As to the method:
as §1, §2

Assay [7] relates to Pseudomonas aeruginosa. The settings on record: Pseudomonas aeruginosa; for Minimum inhibitory concentration, Average: average of triplicates. Here is the method: as §1, §2
Assay [8] has as its system Pseudomonas syringae pv. tabaci. The settings on record: Pseudomonas syringae pv. tabaci. Here is the method:
as §1, §2

Assay [9] concerns Staphylococcus aureus. Particulars: Staphylococcus aureus; for Minimum inhibitory concentration, Average: average of triplicates. As to the method:
as §1, §2

Assay [10] has as its system Xanthomonas campestris. Here is the method:
as §1, §2

The mark [11] stands for this setting: CLSI M27-A3, 0.5 to 256 μM tested, triplicate 1, also published in ref 7.

With GSLHGFMYKYLKNMVLNLF [Tc06], the Minimum inhibitory concentration was 64 µM in assay [1] (CLSI M7-A10, triplicate 1); 64 µM in [1] (triplicate 2); 64 µM in assay [1] (triplicate 3); 16 µM in assay [2] (CLSI M7-A10, triplicate 1); 16 µM in assay [2] (triplicate 2); 16 µM in assay [2] (triplicate 3). Moreover, the Minimum inhibitory concentration was 4 µM in [3] (setting [11]); 4 µM in assay [3] (triplicate 2); 4 µM in assay [3] (triplicate 3); 8 µM in [4] (CLSI M27-A3, triplicate 1); 8 µM in assay [4] (triplicate 2); 16 µM in assay [4] (triplicate 3). Besides, the Minimum inhibitory concentration amounted to 128 µM in assay [5] (CLSI M7-A10, triplicate 1); 128 µM in assay [5] (triplicate 2); 128 µM in [5] (triplicate 3); 32 µM in assay [6] (CLSI M7-A10, triplicate 1); 32 µM in assay [6] (triplicate 2); 32 µM in [6] (triplicate 3). Moreover, the Minimum inhibitory concentration in assay [7] (CLSI M7-A10, triplicate 1) is 16 µM; in assay [7] (triplicate 2), 32 µM; in assay [7] (triplicate 3), 32 µM; in assay [8] (CLSI M7-A10, triplicate 1), 16 µM; in [8] (triplicate 2), 16 µM; in assay [8] (triplicate 3), 16 µM. For the same sequence, the Minimum inhibitory concentration turned out to be 8 µM in assay [9] (CLSI M7-A10, triplicate 1); 16 µM in assay [9] (triplicate 2); 16 µM in assay [9] (triplicate 3); 64 µM in assay [10] (CLSI M7-A10, triplicate 1); 64 µM in [10] (triplicate 2); 64 µM in assay [10] (triplicate 3). The “Minimum inhibitory concentration, Average” value amounted to 64.0 µM in assay [1] (average of triplicates); 16.0 µM in assay [2] (average of triplicates); 4.0 µM in assay [3]; 10.7 µM in assay [4] (average of triplicates); 128.0 µM in [5] (average of triplicates); 32.0 µM in [6]. Also, the “Minimum inhibitory concentration, Average” value in assay [7] amounted to 26.7 µM; in [8] (average of triplicates) it was 16.0 µM; in [9] it was 13.3 µM; in [10] (average of triplicates), 64.0 µM.

Take “GIGDILKNLAKAAGKAALHAVGESL [HSP-4, Hylaseptin-4, reference compound]”: the Minimum inhibitory concentration was 8 µM in [3] (setting [11]); 8 µM in [3] (triplicate 2); 8 µM in [3] (triplicate 3); 8 µM in assay [6] (CLSI M7-A10, triplicate 1); 8 µM in assay [6] (triplicate 2); 8 µM in [6] (triplicate 3). Further, the Minimum inhibitory concentration in [7] (CLSI M7-A10, triplicate 1) came to 16 µM; in assay [7] (triplicate 2), 16 µM; in assay [7] (triplicate 3) it was 16 µM; in assay [9] (CLSI M7-A10, triplicate 1), 8 µM; in assay [9] (triplicate 2), 8 µM; in [9] (triplicate 3), 8 µM. Moreover, the “Minimum inhibitory concentration, Average” value in [3] stood at 8.0 µM; in assay [6], 8.0 µM; in [7], 16.0 µM; in assay [9], 8.0 µM.

Consider “GLKDMIKNLAKEAAVKLAGAVINKFSPQPQ [Nat-1, Nattererin-1, reference compound]”, for which the Minimum inhibitory concentration in assay [3] (setting [11]) was 16 µM; in [3] (triplicate 2), 16 µM; in assay [3] (triplicate 3), 16 µM; in assay [6] (CLSI M7-A10, triplicate 1) it was 8 µM; in assay [6] (triplicate 2) it was 8 µM; in assay [6] (triplicate 3) it was 8 µM. Further, the Minimum inhibitory concentration amounted to 32 µM in [7] (CLSI M7-A10, triplicate 1); 32 µM in assay [7] (triplicate 2); 32 µM in assay [7] (triplicate 3); 16 µM in assay [9] (CLSI M7-A10, triplicate 1); 32 µM in assay [9] (triplicate 2); 32 µM in assay [9] (triplicate 3). In addition, the “Minimum inhibitory concentration, Average” value worked out at 16.0 µM in assay [3], 8.0 µM in assay [6], 32.0 µM in [7] and 26.7 µM in assay [9].

For the sequence “GIGKFLHSAKKFGKAFVGEIMNS [Mag-2a, Magainin-2a, reference compound]”, the Minimum inhibitory concentration is 64 µM in assay [3] (setting [11]); 64 µM in assay [3] (triplicate 2); 64 µM in assay [3] (triplicate 3); 8 µM in assay [6] (CLSI M7-A10, triplicate 1); 8 µM in assay [6] (triplicate 2); 8 µM in assay [6] (triplicate 3). Besides, the Minimum inhibitory concentration in [7] (CLSI M7-A10, triplicate 1) was 512 µM; in assay [7] (triplicate 2), 512 µM; in assay [7] (triplicate 3), 512 µM; in assay [9] (CLSI M7-A10, triplicate 1) it was 512 µM; in assay [9] (triplicate 2), 512 µM; in assay [9] (triplicate 3) it was 512 µM. Besides, the “Minimum inhibitory concentration, Average” value turned out to be 64.0 µM in assay [3], 8.0 µM in [6], 512.0 µM in assay [7] and 512.0 µM in assay [9].

Turning to “FLSLIPHAINAVSTLVHHF [PS-2, reference compound]”, the Minimum inhibitory concentration in [3] (setting [11]) amounted to 32 µM; in [3] (triplicate 2) it was 32 µM; in assay [3] (triplicate 3), 32 µM; in [6] (CLSI M7-A10, triplicate 1) it was 8 µM; in [6] (triplicate 2), 8 µM; in assay [6] (triplicate 3), 8 µM. Also, the Minimum inhibitory concentration amounted to 512 µM in assay [7] (CLSI M7-A10, triplicate 1); 512 µM in assay [7] (triplicate 2); 512 µM in assay [7] (triplicate 3); 8 µM in assay [9] (CLSI M7-A10, triplicate 1); 8 µM in assay [9] (triplicate 2); 8 µM in assay [9] (triplicate 3). Besides, the “Minimum inhibitory concentration, Average” value in [3] was found to be 32.0 µM; in assay [6], 8.0 µM; in assay [7], 512.0 µM; in [9] it was 8.0 µM.
